Reference: PubChem BioAssay (NCI)
Where “and” joins values, the source holds several entries; their conditions need not be identical. Equal values may be shown once.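 The compound was tested at five concentrations on cells cultured in 96-well plates, with a 48-hour exposure period. GI50 is the concentration that inhibits growth by half. TGI marks complete inhibition of growth.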

How the values were obtained:
Assay in all cases: NCI-60 cell line screen, 48 h
[1] = test system: ACHN renal
[2] = test system: MCF7 breast
[3] = test system: T-47D breast
[4] = test system: NCI-H23 lung
[5] = test system: SK-MEL-28 melanoma
[6] = test system: UACC-257 melanoma
[7] = test system: DU-145 prostate
[8] = test system: MDA-MB-435
[9] = test system: NCI-H460 lung
[10] = test system: CAKI-1 renal

SMILES	GI50 [1] [µM]	TGI [1]	GI50 [2] [µM]	TGI [2] [µM]	GI50 [3] [µM]	TGI [3] [µM]	GI50 [4] [µM]	TGI [4]	GI50 [5]	TGI [5]	GI50 [6]	TGI [6]	GI50 [7] [µM]	TGI [7] [µM]	GI50 [8]	TGI [8] [µM]	GI50 [9] [µM]	TGI [9]	GI50 [10] [µM]	TGI [10] [µM]
COc1ccc(NC(=O)Nc2n[nH]c3ccccc23)cc1	> 100	> 100 µM	> 100	> 100	> 100	> 100	> 100	> 100 µM	> 100 µM	> 100 µM	> 100 µM	> 100 µM	> 100	> 100	> 100 µM	> 100	> 100	> 100 µM	> 100	> 100
Cc1cc([C@@H](C)Nc2ccccc2C(=O)O)c2nc(N3CCOCC3)cc(=O)n2c1	> 10	> 10 µM	3.36	> 10	0.207	1.94	> 10	> 10 µM	> 10 µM	> 10 µM	> 10 µM	> 10 µM	> 10	> 10	> 10 µM	> 10	> 10	> 10 µM	6.28	> 10
COc1cc(/C=C\[N+](=O)[O-])ccc1O	2.36	6.01 µM	1.63	4.28	2.33	9.95	3.34	11.4 µM	1.95 µM	4.59 µM	2.42 µM	6.77 µM	2.41	5.93	2.16 µM	5.98	3.51	13.7 µM	2.85	10.9
CCc1c2c(nc3cc4c(cc13)OCO4)-c1cc3c(c(=O)n1C2)COC(=O)[C@]3(O)CC	< 0.001	0.146 µM and 0.0376 µM	< 0.001		< 0.001		0.00263	1.08 µM	0.764 µM and 1.14 µM	> 100 µM	0.135 µM and 0.194 µM	2.04 µM and 2.71 µM		> 100	0.0182 µM and 0.0961 µM	> 100	< 0.001	1.09 µM and 0.617 µM	< 0.001	
CC1(C)N=C(N)N=C(N)N1c1ccc(CCCCc2ccc(S(=O)(=O)F)cc2)cc1	4.68	> 100 µM	0.425	14.2	2.09	10.3	2.6	24.8 µM	4.57 µM	20.3 µM	2.07 µM	18.3 µM	0.833	28.2	0.506 µM	17	0.153	13.3 µM	3.7	> 100
CCOc1ccc(S(=O)(=O)/N=C2\C=C(SCC(=O)O)C(=O)c3ccccc32)cc1	6.8	20.2 µM	1.64	3.68	2.72	7.18	2.81	14.2 µM	4.74 µM	16.3 µM	16.1 µM	39.3 µM	2.04	5.86	1.75 µM	3.63	12.4	28.2 µM	7.76	20.8
Cc1cc2nc3c4cc(Cl)ccc4n(CCN(C)C)c3nc2cc1C	0.66	2.01 µM	1.06	2.49	2.98	16.6	1.65	3.95 µM	2 µM	3.53 µM	1.76 µM	3.59 µM	2.14	4.62	1.69 µM	3.19	1.34	2.85 µM	1.06	2.8
COc1ccc(/C=C/C=C(/C#N)C(N)=S)cc1	24.6	49.9 µM	29.5	> 100	18.8	76.9	28.7	> 100 µM	23.8 µM	65.7 µM	20.4 µM	41.4 µM	32.7	> 100	21.6 µM	77.1	23.7	65.9 µM	29.6	> 100
O=c1cc(-c2cccc(F)c2)[nH]c2cc3c(cc12)OCO3	0.432	75 µM and > 59.5 µM		> 100		> 100		2.43 µM and 2.83 µM	0.359 µM	75 µM and > 72.4 µM		> 100 µM		1.63		0.0211	0.257	4.31 µM and 22.7 µM		> 53.3
CN=C(N)N/N=C(\c1ccccc1)c1ccc(Br)cc1	0.467	10.1 µM	0.268	8.33	2.96	26.7	0.562	11.8 µM	0.844 µM	5.38 µM	0.913 µM	12.9 µM	0.366	10.5	0.179 µM	0.511	0.355	9.05 µM	0.596	13.2
O=C(c1ccc2ccccc2c1)c1c(C(F)(F)F)n([O-])c2cc(Cl)c(Cl)cc2[n+]1=O	1.59	2.94 µM	1.68	3.41	1.24	3.01			1.74 µM	3.57 µM	1.63 µM	3.03 µM	1.57	2.9	1.92 µM	3.56	2.02	4.15 µM	1.35	2.63
NC(CO)Cc1cnc[nH]1 (stereo not drawn)	> 100	> 100 µM	> 100	> 100	> 100	> 100	> 100	> 100 µM	> 100 µM	> 100 µM		> 100 µM		> 100	> 100 µM	> 100	> 100	> 100 µM		> 100
COC(=O)C(=O)CC(=O)CCn1ncc(Cl)c(Cl)c1=O		34.9 µM	15.6	> 100	21.2	40.2		26.9 µM		21.9 µM		25.8 µM	18.3	35	3.37 µM	12.8		32.3 µM		9.42
